In ChEMBL document CHEMBL1148160, “Planaxool: a novel cytotoxic cembranoid form the mollusk Planaxis sulcatus” (1993) one finds IC100 data, which are given here for one compound.

The experiment has as its system L1210. The experiment is described as follows: Cytotoxicity against mouse L1210 cells. The experiment is classed as functional.

The compound `C/C1=C\CC[C@]2(C)O[C@H]([C@@H]3OC(=O)[C@]4(OO)CCO[C@@H]2C[C@H]34)[C@H](C)CCC1` [PLANAXOOL] had an IC100 of 2.4 µg/mL.
